pIC50: −log10 of the molar value. Bridge positions count the residues as written; N and C are the ends. Square brackets hold non-standard residues; d marks the D form. Peptide text beside a SMILES is read from it. * marks the point of attachment. hPhe(3-Cl-4-CF3) = N[C@@H](CCc1ccc(C(F)(F)F)c(Cl)c1)C(=O)O; NMePhe(4-Me) = CN[C@@H](Cc1ccc(C)cc1)C(=O)O; NMePhe(4-F) = CN[C@@H](Cc1ccc(F)cc1)C(=O)O; NMeGly(cPent) = CN[C@H](C(=O)O)C1CCCC1; NMe3Pal = CN[C@@H](Cc1cccnc1)C(=O)O; NMeCha = CN[C@@H](CC1CCCCC1)C(=O)O; NMeAhp(2) = CCCCC[C@H](NC)C(=O)O; NMeChg = CN[C@H](C(=O)O)C1CCCCC1; NMeF = CN[C@@H](Cc1ccccc1)C(=O)O; NMeD = CN[C@@H](CC(=O)O)C(=O)O; NMeL = CN[C@@H](CC(C)C)C(=O)O; Cba = N[C@@H](CC1CCC1)C(=O)O; NMeV = CN[C@H](C(=O)O)C(C)C; d(β3hA) = C[C@@H](N)CC(=O)O; NMeAbu = CC[C@H](NC)C(=O)O; NMeS = CN[C@@H](CO)C(=O)O; Morpholide = C1CN(*)CCO1; NMeA = CN[C@@H](C)C(=O)O; Nle = CCCC[C@H](N)C(=O)O; Piperidide = C1CCN(*)CC1; Pyrrolidide = C1CCN(*)C1; dNMeA = CN[C@H](C)C(=O)O; Ac5c = NC1(C(=O)O)CCCC1; Aze = O=C(O)[C@@H]1CCN1; Abu = CC[C@H](N)C(=O)O; Sar = CNCC(=O)O; Propyl = CCC*
Each molecule was assayed on Human pancreatic cancer cell line AsPC-1 (G12D mutation Kras) (assay: AsPC-1 cell growth inhibition (AsPC-1 CGI)). Conditions: read-out: AsPC-1 cell growth inhibition, 50% growth inhibitory concentration (IC50 value); 96 hours, CellTiter-Glo, values classified in ranges.
Format: cell-based
Procedure: Test compounds were serially dilated with dimethyl sulfoxide, and 200 nL was then dispensed to a U-bottom 96-well plate using Labcyte Echo. […] The cell suspension was dispensed to a. plate containing a test compound at 100 μL per well and incubated at 37° C. in a 5% carbon dioxide gas incubator. 96 hours later, 80 μL of CellTiter-Glo (Promega) was added to each well and fluorescence was measured.
CC[C@H](C)[C@@H]1NC(=O)[C@H](C)N(C)C(=O)C[C@@H](C(=O)N2CCCCC2)N(C)C(=O)[C@H](C(C)C)N(C)C(=O)C2(CCCC2)NC(=O)[C@@H]2CCCN2C(=O)[C@H](CCc2ccc(C(F)(F)F)c(Cl)c2)NC(=O)CN(C)C(=O)[C@H](Cc2ccc(F)cc2)N(C)C(=O)[C@@H]2CCCN2C(=O)CN(C)C1=O [Compound 1698] ([NMeA]I[Sar]P[NMePhe(4-F)][Sar][hPhe(3-Cl-4-CF3)]P[Ac5c][NMeV][NMeD]-Piperidide; lactam N-11) was tested, and the pIC50 was under 6.30. CC[C@H](C)[C@@H]1NC(=O)[C@H](C)N(C)C(=O)C[C@@H](C(=O)N2CCOCC2)N(C)C(=O)[C@H](C2CCCCC2)N(C)C(=O)C2(CCCC2)NC(=O)[C@H](Cc2cccnc2)N(C)C(=O)[C@H](CCc2ccc(C(F)(F)F)c(Cl)c2)NC(=O)CN(C)C(=O)[C@H](CC2CCCCC2)N(C)C(=O)[C@@H]2CCN2C(=O)CN(C)C1=O [Compound 1703] ([NMeA]I[Sar][Aze][NMeCha][Sar][hPhe(3-Cl-4-CF3)][NMe3Pal][Ac5c][NMeChg][NMeD]-Morpholide; lactam N-11) showed a pIC50 of under 6.30. Work on CC[C@H](C)[C@@H]1NC(=O)[C@H](C)N(C)C(=O)C[C@@H](C(=O)N2CCCC2)N(C)C(=O)[C@H](C(C)C)N(C)C(=O)C2(CCCC2)NC(=O)[C@@H]2CCCN2C(=O)[C@H](CCc2ccc(C(F)(F)F)c(Cl)c2)NC(=O)[C@@H](C)N(C)C(=O)[C@H](CC2CCCCC2)N(C)C(=O)[C@@H]2CCCN2C(=O)CN(C)C1=O [Compound 1715] ([NMeA]I[Sar]P[NMeCha][dNMeA][hPhe(3-Cl-4-CF3)]P[Ac5c][NMeV][NMeD]-Pyrrolidide; lactam N-11) yielded a pIC50 of under 6.30. Work on CCCCC[C@H]1C(=O)N(C)[C@H](C(=O)N2CCCCC2)CC(=O)N(C)[C@@H](CC(C)C)C(=O)N[C@@H]([C@@H](C)CC)C(=O)N(C)CC(=O)N(C)CC(=O)N(C)[C@@H](CC2CCCCC2)C(=O)N(C)CC(=O)N[C@@H](CCc2ccc(C(F)(F)F)c(Cl)c2)C(=O)N2CCC[C@H]2C(=O)NC2(CCCC2)C(=O)N1C [Compound 1719] ([NMeL]I[Sar][Sar][NMeCha][Sar][hPhe(3-Cl-4-CF3)]P[Ac5c][NMeAhp(2)][NMeD]-Piperidide; lactam N-11) yielded a pIC50 of under 6.30. For CCCC[C@@H]1NC(=O)[C@H](CC(C)C)N(C)C(=O)C[C@@H](C(=O)N2CCCCC2)N(C)C(=O)[C@H](C2CCCCC2)N(C)C(=O)C2(CCCC2)NC(=O)[C@@H]2CCCN2C(=O)[C@H](CCc2ccc(C(F)(F)F)c(Cl)c2)NC(=O)CN(C)C(=O)[C@H](CC2CCCCC2)N(C)C(=O)CN(C)C(=O)CN(C)C1=O [Compound 1723] ([NMeL][Nle][Sar][Sar][NMeCha][Sar][hPhe(3-Cl-4-CF3)]P[Ac5c][NMeChg][NMeD]-Piperidide; lactam N-11), the pIC50 was under 6.30. Work on CC[C@H](C)[C@@H]1NC(=O)[C@H](C)N(C)C(=O)C[C@@H](C(=O)N2CCCCC2)N(C)C(=O)[C@H](C(C)C)N(C)C(=O)C2(CCCC2)NC(=O)[C@@H]2CCCN2C(=O)[C@H](CCc2ccc(C(F)(F)F)c(Cl)c2)NC(=O)[C@H]2CCCN2C(=O)[C@H](Cc2ccc(F)cc2)N(C)C(=O)[C@@H]2CCCN2C(=O)CN(C)C1=O [Compound 1725] ([NMeA]I[Sar]P[NMePhe(4-F)][dP][hPhe(3-Cl-4-CF3)]P[Ac5c][NMeV][NMeD]-Piperidide; lactam N-11) yielded a pIC50 of under 6.30. CC[C@H](C)[C@@H]1NC(=O)[C@H](C)N(C)C(=O)C[C@@H](C)NC(=O)[C@H](C(C)C)N(C)C(=O)C2(CCCC2)NC(=O)[C@@H]2CCCN2C(=O)[C@H](CCc2ccc(C(F)(F)F)c(Cl)c2)NC(=O)[C@H]2CCCN2C(=O)[C@H](Cc2ccccc2)N(C)C(=O)[C@@H]2CCCN2C(=O)CN(C)C1=O [Compound 1730] (cyclo([Ac5c][NMeV][d(β3hA)][NMeA]I[Sar]P[NMeF][dP][hPhe(3-Cl-4-CF3)]P)) gave a pIC50 of under 6.30. For CC[C@H](C)[C@@H]1NC(=O)[C@H](C)N(C)C(=O)C[C@@H](C)NC(=O)[C@H](C(C)C)N(C)C(=O)C2(CCCC2)NC(=O)[C@@H]2CCCN2C(=O)[C@H](CCc2ccc(C(F)(F)F)c(Cl)c2)NC(=O)CN(C)C(=O)[C@H](Cc2ccc(F)cc2)N(C)C(=O)[C@@H]2CCCN2C(=O)CN(C)C1=O [Compound 1732] (cyclo([Ac5c][NMeV][d(β3hA)][NMeA]I[Sar]P[NMePhe(4-F)][Sar][hPhe(3-Cl-4-CF3)]P)), the pIC50 was under 6.30. With CCCOC[C@@H]1NC(=O)[C@H](CC(C)C)N(C)C(=O)C[C@@H](C(=O)N2CCCCC2)N(C)C(=O)[C@H](C2CCCCC2)N(C)C(=O)C2(CCCC2)NC(=O)[C@@H]2CCCN2C(=O)[C@H](CCc2ccc(C(F)(F)F)c(Cl)c2)NC(=O)CN(C)C(=O)[C@H](CC2CCCCC2)N(C)C(=O)CN(C)C(=O)CN(C)C1=O [Compound 1736] ([NMeL]S(Propyl)[Sar][Sar][NMeCha][Sar][hPhe(3-Cl-4-CF3)]P[Ac5c][NMeChg][NMeD]-Piperidide; lactam N-11) the pIC50 was under 6.30. CC[C@H](C)[C@@H]1NC(=O)[C@H](CC(C)C)N(C)C(=O)C[C@@H](C(=O)N2CCCCC2)N(C)C(=O)[C@H](CC)N(C)C(=O)C2(CCCC2)NC(=O)[C@@H]2CCCN2C(=O)[C@H](CCc2ccc(C(F)(F)F)c(Cl)c2)NC(=O)CN(C)C(=O)[C@H](CC2CCCCC2)N(C)C(=O)CN(C)C(=O)CN(C)C1=O [Compound 1741] ([NMeL]I[Sar][Sar][NMeCha][Sar][hPhe(3-Cl-4-CF3)]P[Ac5c][NMeAbu][NMeD]-Piperidide; lactam N-11) showed a pIC50 of under 6.30. In the case of CC[C@H](C)[C@@H]1NC(=O)[C@H](CC(C)C)N(C)C(=O)C[C@@H](C(=O)N2CCCCC2)N(C)C(=O)[C@H](C2CCCCC2)N(C)C(=O)C2(CCCC2)NC(=O)[C@@H]2CCCN2C(=O)[C@H](CCc2ccc(C(F)(F)F)c(Cl)c2)NC(=O)CN(C)C(=O)[C@H](CC)N(C)C(=O)CN(C)C(=O)CN(C)C1=O [Compound 1743] ([NMeL]I[Sar][Sar][NMeAbu][Sar][hPhe(3-Cl-4-CF3)]P[Ac5c][NMeChg][NMeD]-Piperidide; lactam N-11), the pIC50 was under 6.30. For CC[C@H](C)[C@@H]1NC(=O)[C@H](C)N(C)C(=O)C[C@@H](C(=O)N2CCCCC2)N(C)C(=O)[C@H](C(C)C)N(C)C(=O)C2(CCCC2)NC(=O)[C@@H]2CCCN2C(=O)[C@H](CCc2ccc(C(F)(F)F)c(Cl)c2)NC(=O)CN(C)C(=O)[C@H](Cc2ccccc2)N(C)C(=O)[C@@H]2CCCN2C(=O)CN(C)C1=O [Compound 1753] ([NMeA]I[Sar]P[NMeF][Sar][hPhe(3-Cl-4-CF3)]P[Ac5c][NMeV][NMeD]-Piperidide; lactam N-11), the pIC50 was under 6.30. In the case of CC(C)C[C@@H]1NC(=O)[C@H](CC(C)C)N(C)C(=O)C[C@@H](C(=O)N2CCCCC2)N(C)C(=O)[C@H](C(C)C)N(C)C(=O)C2(CCCC2)NC(=O)[C@@H]2CCCN2C(=O)[C@H](CCc2ccc(C(F)(F)F)c(Cl)c2)NC(=O)CN(C)C(=O)[C@H](CC2CCCCC2)N(C)C(=O)[C@@H]2CCN2C(=O)[C@H](C)N(C)C1=O [Compound 1754] ([NMeL]L[NMeA][Aze][NMeCha][Sar][hPhe(3-Cl-4-CF3)]P[Ac5c][NMeV][NMeD]-Piperidide; lactam N-11), the pIC50 was under 6.30. Work on CC[C@H](C)[C@@H]1NC(=O)[C@H](C)N(C)C(=O)C[C@@H](C(=O)N2CCCCC2)N(C)C(=O)[C@H](C(C)C)N(C)C(=O)C2(CCCC2)NC(=O)[C@@H]2CCCN2C(=O)[C@H](CCc2ccc(C(F)(F)F)c(Cl)c2)NC(=O)[C@@H](C)N(C)C(=O)[C@H](Cc2ccc(F)cc2)N(C)C(=O)CN(C)C(=O)CN(C)C1=O [Compound 1755] ([NMeA]I[Sar][Sar][NMePhe(4-F)][dNMeA][hPhe(3-Cl-4-CF3)]P[Ac5c][NMeV][NMeD]-Piperidide; lactam N-11) yielded a pIC50 of under 6.30. Molecule CC[C@H](C)[C@@H]1NC(=O)[C@H](CC(C)C)N(C)C(=O)C[C@@H](C(=O)N(C)C)N(C)C(=O)[C@H](C2CCCC2)N(C)C(=O)C2(CCCC2)NC(=O)[C@@H]2CCCN2C(=O)[C@H](CCc2ccc(C(F)(F)F)c(Cl)c2)NC(=O)CN(C)C(=O)[C@H](Cc2ccc(C)cc2)N(C)C(=O)[C@@H]2CCN2C(=O)[C@H](C)N(C)C1=O [Compound 1756] ([NMeL]I[NMeA][Aze][NMePhe(4-Me)][Sar][hPhe(3-Cl-4-CF3)]P[Ac5c][NMeGly(cPent)][NMeD]-NMe2; lactam N-11) has a pIC50 of at least 7.70. CC(C)C[C@H]1C(=O)N[C@@H](CC2CCC2)C(=O)N(C)CC(=O)N(C)CC(=O)N(C)[C@@H](CC2CCCCC2)C(=O)N(C)CC(=O)N[C@@H](CCc2ccc(C(F)(F)F)c(Cl)c2)C(=O)N2CCC[C@H]2C(=O)NC2(CCCC2)C(=O)N(C)[C@@H](C2CCCCC2)C(=O)N(C)[C@H](C(=O)N2CCCCC2)CC(=O)N1C [Compound 1759] ([NMeL][Cba][Sar][Sar][NMeCha][Sar][hPhe(3-Cl-4-CF3)]P[Ac5c][NMeChg][NMeD]-Piperidide; lactam N-11) showed a pIC50 of under 6.30. Work on CC(C)C[C@H]1C(=O)N[C@@H](CO)C(=O)N(C)[C@@H](C)C(=O)N2CC[C@H]2C(=O)N(C)[C@@H](CC2CCCCC2)C(=O)N(C)CC(=O)N[C@@H](CCc2ccc(C(F)(F)F)c(Cl)c2)C(=O)N2CCC[C@H]2C(=O)NC2(CCCC2)C(=O)N(C)[C@@H](C(C)C)C(=O)N(C)[C@H](C(=O)N2CCCCC2)CC(=O)N1C [Compound 1768] ([NMeL]S[NMeA][Aze][NMeCha][Sar][hPhe(3-Cl-4-CF3)]P[Ac5c][NMeV][NMeD]-Piperidide; lactam N-11) yielded a pIC50 of under 6.30. With CCCOC[C@H]1C(=O)N(C)[C@H](C(=O)N2CCCCC2)CC(=O)N(C)[C@@H](CC(C)C)C(=O)N[C@@H]([C@@H](C)CC)C(=O)N(C)CC(=O)N(C)CC(=O)N(C)[C@@H](CC2CCCCC2)C(=O)N(C)CC(=O)N[C@@H](CCc2ccc(C(F)(F)F)c(Cl)c2)C(=O)N2CCC[C@H]2C(=O)NC2(CCCC2)C(=O)N1C [Compound 1771] ([NMeL]I[Sar][Sar][NMeCha][Sar][hPhe(3-Cl-4-CF3)]P[Ac5c][NMeS](Propyl)[NMeD]-Piperidide; lactam N-11) the pIC50 was under 6.30. CC[C@@H]1NC(=O)[C@H](CC(C)C)N(C)C(=O)C[C@@H](C(=O)N2CCCCC2)N(C)C(=O)[C@H](C2CCCCC2)N(C)C(=O)C2(CCCC2)NC(=O)[C@@H]2CCCN2C(=O)[C@H](CCc2ccc(C(F)(F)F)c(Cl)c2)NC(=O)CN(C)C(=O)[C@H](CC2CCCCC2)N(C)C(=O)CN(C)C(=O)CN(C)C1=O [Compound 1775] ([NMeL][Abu][Sar][Sar][NMeCha][Sar][hPhe(3-Cl-4-CF3)]P[Ac5c][NMeChg][NMeD]-Piperidide; lactam N-11) was tested, and the pIC50 was under 6.30.

Source: patent US20240148821A1, “PHARMACEUTICAL USE OF CYCLIC PEPTIDE COMPOUND” (CHUGAI SEIYAKU KABUSHIKI KAISHA, priority 2021, published 2024)
